# In the supplement of paper PMC11061612:
# Columns and labels:
# [1] = test system: NCI-H2087 (Lung Adenocarcinoma); assay: Bliss excess, mean over the matrix (fraction); higher = more synergy
# Procedure, shortened: (§1)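 Cell lines in DMEM/F12 or RPMI with 10% FBS were plated in 1536-well plates, held 24 hours at 37°C, 5% CO2, then given two-drug dose matrices for 72 hours (DMSO typically 0.2%). Viability was read by CellTiter-Glo 2.0 luminescence and scaled as inhibition from 0 (vehicle wells) to 1 (blank wells). Combination Emax is the second-highest inhibition in the matrix; Bliss excess is observed combination effect minus expected EA + EB − EA·EB, EA and EB being single-agent effects.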
# [2] = test system: EW-7 (Ewing's Sarcoma); assay: as above
# Procedure, shortened: as §1
# [3] = test system: 22RV1 (Prostate Carcinoma); assay: as above
# Procedure, shortened: as §1
# [4] = test system: NCI-H1651 (Lung Adenocarcinoma); assay: as above
# Procedure, shortened: as §1
# [5] = test system: HCC70 (Breast Carcinoma); assay: combination Emax (second highest fraction inhibited in the dose matrix, 72 h); higher = more inhibition; extreme values may be limits of the assay
# Procedure, shortened: as §1
# [6] = test system: NCI-H1703 (Squamous Cell Lung Carcinoma); assay: as above
# Procedure, shortened: as §1
# [7] = test system: IM-9 (Non-Cancerous); assay: as above
# Procedure, shortened: as §1
# [8] = test system: SK-HEP-1 (Hepatocellular Carcinoma); assay: as above
# Procedure, shortened: as §1
# [9] = test system: EW-7 (Ewing's Sarcoma); assay: as above
# Procedure, shortened: as §1
# [10] = test system: WM1552C (Melanoma); assay: as above
# Procedure, shortened: as §1
# [11] = test system: MHH-ES-1 (Ewing's Sarcoma); assay: as above
# Procedure, shortened: as §1
# [12] = test system: CGTH-W-1 (Thyroid Gland Carcinoma); assay: as above
# Procedure, shortened: as §1
# [13] = test system: SW620 (Colorectal Carcinoma); assay: as above
# Procedure, shortened: as §1
# [14] = test system: EB2 (Burkitt's Lymphoma); assay: as above
# Procedure, shortened: as §1
# [15] = test system: A2780 (Ovarian Carcinoma); assay: as above
# Procedure, shortened: as §1
# [16] = test system: PEO1 (Ovarian Carcinoma); assay: as above
# Procedure, shortened: as §1
# [17] = test system: 22RV1 (Prostate Carcinoma); assay: as above
# Procedure, shortened: as §1
# [18] = test system: LU-165 (Small Cell Lung Carcinoma); assay: as above
# Procedure, shortened: as §1
# [19] = test system: KYSE-220 (Esophageal Squamous Cell Carcinoma); assay: as above
# Procedure, shortened: as §1
# [20] = test system: HCC1395 (Breast Carcinoma); assay: as above
# Procedure, shortened: as §1
# 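For Bliss excess, mean over the matrix in this document: after 72 h of two-drug dosing.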
compound,measurement,setting,value
"N#Cc1cnc(Nc2cc(NC[C@H]3CNCCO3)c(C(F)(F)F)cn2)cn1 [SRA737] + C=CCn1c(=O)c2cnc(Nc3ccc(N4CCN(C)CC4)cc3)nc2n1-c1cccc(C(C)(C)O)n1 [AZD1775] (first compound max 10 µM, partner max 1 µM)",Bliss excess,[1],0.0238
same,Bliss excess,[2],0.0142
same,Bliss excess,[3],0.0367
same,Bliss excess,[4],0.0846
same,combination Emax,[5],0.848
same,combination Emax,[6],0.972
same,combination Emax,[7],1
same,combination Emax,[8],0.23
same,combination Emax,[9],0.954
same,combination Emax,[10],0.751
same,combination Emax,[11],0.667
same,combination Emax,[12],0.432
same,combination Emax,[13],0.587
same,combination Emax,[14],0.911
same,combination Emax,[15],0.966
same,combination Emax,[16],0.48
same,combination Emax,[17],0.516
same,combination Emax,[18],0.598
same,combination Emax,[19],0.711
same,combination Emax,[20],0.753
